# Test results as given in patent US5637724A (priority 1995, dated 1997).
# Biological target: GABAa receptor
# Assay: GABAa receptor binding, displacement of 3H-RO15-1788 [3H-Flumazenil]
# Conditions: rat cortical tissue, 0.5 nM 3H-RO15-1788, 30 min at 4° C., pH 7.4
# Protocol: The pharmaceutical utility of compounds of this invention are indicated by the following assay for GABAa receptor activity.
# Assays are carded out as described in Thomas and Tallman (J. Bio. Chem. 156: 9838-9842, J. Neurosci. 3: 433-440, 1983). Rat conical tissue is dissected and homogenized in 25 volumes (w/v) of 0.05M Tris HCl buffer (pH 7.4 at 4° C.). The tissue homogenate is centrifuged in the cold (4°) at 20,000×g for 20'. The supernatant is decanted and the pellet is rehomogenized in the same volume of buffer and again centrifuged at 20,000×g. The supernatant is decanted and the pellet is frozen at -20° C. overnight. The pellet is then thawed and rehomogenized in 25 volume (original wt/vol) of buffer and the procedure is carded out twice. The pellet is finally resuspended in 50 volumes (w/vol of 0.05M Tris HCl buffer (pH 7.4 at […]).
# Incubations contain […] of tissue homogenate, […] of radioligand 0.5 nM (3H-RO15-1788 [^3 H-Flumazenil] specific activity 80 Ci/mmol), drug or blocker and buffer to a total volume of […]. Incubations are carried for 30 min at 4° C. then are rapidly filtered through GFB filters to separate free and bound ligand. Filters are washed twice with fresh 0.05M Tris HCl buffer (pH 7.4 at 4° C.) and counted in a liquid scintillation counter. 1.0 mM diazepam is added to some tubes to determine nonspecific binding. Data are collected in triplicate determinations, averaged and % inhibition of total specific binding is calculated. Total Specific Binding=Total-Nonspecific. In some cases, the amounts of unlabeled drugs is varied and total displacement curves of binding are carded out. Data are converted to a form for the calculation of IC50 and Hill Coefficient (nH).
row,SMILES,Ki [µM]
1,O=c1[nH]c2c(n1-c1nc3ccc(F)c(F)c3o1)CCCCC2 [Compound 1],0.003
2,O=c1[nH]c2c(n1-c1nc3ccc(F)cc3o1)CCCCC2 [Compound 2],0.0046
3,"O=c1[nH]c2cc(F)ccc2n1-c1nc2cccc(F)c2o1 [Compound 3, 3-(2-(7-fluorobenzoxazyl))-6-fluorobenzimidazol-2-(1H)-one]",0.014
4,"O=c1[nH]c2cc(F)ccc2n1-c1nc2ccc(F)cc2o1 [Compound 4, 3-(2-(6-fluorobenzoxazyl))-6-fluorobenzimidazol-2-(1H)-one]",0.025
5,O=c1[nH]c2c(n1-c1nc3ccc(F)c(F)c3o1)CCCC2 [Compound 5],0.021
6,COc1ccc2oc(-n3c4c([nH]c3=O)CCCC4)nc2c1 [Compound 6],0.081
